Measurements as given in the NIST ThermoML archive (doi:10.1016/j.tca.2015.01.022).

Experiment: molar heat capacity at constant pressure
Details: 101.33 kPa, Small (less than 1 g) adiabatic calorimetry

CCCCn1cc[n+](C)c1.F[B-](F)(F)F [1-butyl-3-methylimidazolium tetrafluoroborate]
Details	molar heat capacity at constant pressure [J/K/mol]
5 K, Glass	1.47
5.16 K, Glass	1.62
5.39 K, Glass	1.822
5.67 K, Glass	2.094
5.96 K, Glass	2.397
6.28 K, Glass	2.762
6.64 K, Glass	3.192
7 K, Glass	3.657
7.36 K, Glass	4.172
7.73 K, Glass	4.709
8.11 K, Glass	5.283
8.49 K, Glass	5.896
8.87 K, Glass	6.54
9.26 K, Glass	7.211
9.64 K, Glass	7.915
10 K, Glass	8.59
10.03 K, Glass	8.641
10.52 K, Glass	9.597
11.13 K, Glass	10.83
11.75 K, Glass	12.13
12.36 K, Glass	13.44
12.97 K, Glass	14.81
13.59 K, Glass	16.22
14.22 K, Glass	17.7
14.85 K, Glass	19.2
15 K, Glass	19.58
15.58 K, Glass	20.98
16.44 K, Glass	23.16
17.29 K, Glass	25.28
18.15 K, Glass	27.41
19.01 K, Glass	29.55
19.88 K, Glass	31.75
20 K, Glass	32.08
21.08 K, Glass	34.8
22.63 K, Glass	38.75
24.2 K, Glass	42.72
25 K, Glass	44.7
25.76 K, Glass	46.64
27.21 K, Glass	50.17
28.7 K, Glass	53.74
30 K, Glass	56.8
30.28 K, Glass	57.41
32.02 K, Glass	61.38
33.93 K, Glass	65.51
35 K, Glass	67.76
35.84 K, Glass	69.47
37.75 K, Glass	73.26
39.66 K, Glass	76.94
40 K, Glass	77.68
41.67 K, Glass	80.75
43.78 K, Glass	84.66
45 K, Glass	86.86
45.89 K, Glass	88.43
48 K, Glass	92.13
50 K, Glass	95.33
50.12 K, Glass	95.61
52.24 K, Glass	99
54.36 K, Glass	102.2
56.48 K, Glass	105.3
58.61 K, Glass	108.4
60 K, Glass	110.5
60.75 K, Glass	111.5
62.88 K, Glass	114.5
65.01 K, Glass	117.4
67.14 K, Glass	120.3
69.28 K, Glass	123.1
70 K, Glass	124.2
71.52 K, Glass	126
73.86 K, Glass	129.1
76.21 K, Glass	132.1
78.57 K, Glass	135.1
78.59 K, Glass	135
80 K, Glass	136.7
80.92 K, Glass	137.8
81.08 K, Glass	138.2
83.28 K, Glass	140.7
83.48 K, Glass	140.7
85.56 K, Glass	143.1
85.91 K, Glass	143.3
88.1 K, Glass	145.9
88.36 K, Glass	146.1
90 K, Glass	148.1
90.56 K, Glass	148.7
90.83 K, Glass	148.8
93.04 K, Glass	151.5
93.31 K, Glass	151.6
95.54 K, Glass	154.3
95.81 K, Glass	154.3
98.06 K, Glass	156.9
98.33 K, Glass	156.9
100 K, Glass	158.7
100.58 K, Glass	159.4
100.87 K, Glass	159.6
103.12 K, Glass	162
103.41 K, Glass	162.3
105.68 K, Glass	164.7
105.97 K, Glass	164.9
108.24 K, Glass	167.2
108.53 K, Glass	167.4
110 K, Glass	169
110.81 K, Glass	169.8
111.11 K, Glass	170.1
113.39 K, Glass	172.7
113.69 K, Glass	172.7
115.97 K, Glass	175.1
116.27 K, Glass	175.4
118.56 K, Glass	177.8
118.87 K, Glass	178
120 K, Glass	179.2
121.16 K, Glass	180.5
121.47 K, Glass	180.7
123.76 K, Glass	183.1
124.08 K, Glass	183.2
126.37 K, Glass	185.5
126.68 K, Glass	185.8
128.98 K, Glass	188.1
129.3 K, Glass	188.4
130 K, Glass	189.1
131.59 K, Glass	190.7
131.91 K, Glass	191
133.42 K, Glass	192.4
134.2 K, Glass	193.3
134.53 K, Glass	193.6
136.1 K, Glass	195
136.82 K, Glass	195.9
137.15 K, Glass	196.2
138.71 K, Glass	197.7
139.43 K, Glass	198.3
139.77 K, Glass	198.7
140 K, Glass	198.9
141.33 K, Glass	200.2
142.05 K, Glass	201.1
142.38 K, Glass	201.3
143.94 K, Glass	202.8
144.67 K, Glass	203.6
145 K, Glass	203.9
146.55 K, Glass	205.4
147.29 K, Glass	206.3
147.63 K, Glass	206.5
149.17 K, Glass	208
149.9 K, Glass	209.1
150 K, Glass	208.9
150.24 K, Glass	209.1
151.78 K, Glass	210.6
152.52 K, Glass	211.6
152.86 K, Glass	211.8
154.39 K, Glass	213.3
155.13 K, Glass	214.2
155.48 K, Glass	214.4
157 K, Glass	216
157.74 K, Glass	216.9
158.09 K, Glass	217.2
159.61 K, Glass	218.7
160 K, Glass	219.3
160.35 K, Glass	219.7
160.71 K, Glass	219.9
162.21 K, Glass	221.6
162.96 K, Glass	222.4
163.32 K, Glass	222.8
164.8 K, Glass	224.5
165.57 K, Glass	225.6
165.93 K, Glass	225.7
167.4 K, Glass	227.5
168.19 K, Glass	228.6
168.53 K, Glass	228.9
169.99 K, Glass	230.8
170 K, Glass	230.8
170.79 K, Glass	232
171.13 K, Glass	232.5
172.58 K, Glass	234.6
173.37 K, Glass	236
173.73 K, Glass	236.7
175.18 K, Glass	239.5
175.96 K, Glass	241.5
176.31 K, Glass	242.4
177.73 K, Glass	247
178.51 K, Glass	249.7
178.86 K, Glass	251.9
180 K, Glass	260.4
180.22 K, Glass	262.1
180.97 K, Glass	268.6
181.29 K, Liquid	276.1
182.48 K, Liquid	309.1
183.17 K, Liquid	322.3
183.45 K, Liquid	329.7
184.59 K, Liquid	329.2
185.3 K, Liquid	329.5
185.6 K, Liquid	330
186.77 K, Liquid	331
187.48 K, Liquid	331.6
187.79 K, Liquid	331.2
188.95 K, Liquid	331.4
189.98 K, Liquid	331.5
190 K, Liquid	331.5
191.13 K, Liquid	331.6
192.17 K, Liquid	331.7
193.32 K, Liquid	331.9
194.37 K, Liquid	332
195.51 K, Liquid	332.2
196.58 K, Liquid	332.3
197.71 K, Liquid	332.5
198.79 K, Liquid	332.6
199.91 K, Liquid	332.8
200 K, Liquid	333
202.13 K, Liquid	333.2
204.34 K, Liquid	333.6
206.55 K, Liquid	334
208.77 K, Liquid	334.5
210 K, Liquid	335.1
210.99 K, Liquid	334.9
213.22 K, Liquid	335.4
215.44 K, Liquid	335.9
220 K, Liquid	337.5
230 K, Liquid	340.4
240 K, Liquid	343.6
250 K, Liquid	347.2
260 K, Liquid	350.9
263.82 K, Liquid	351.8
266.12 K, Liquid	352.8
268.4 K, Liquid	353.7
270 K, Liquid	354.9
270.68 K, Liquid	354.6
272.95 K, Liquid	355.5
275.23 K, Liquid	356.5
277.5 K, Liquid	357.6
279.78 K, Liquid	358.5
280 K, Liquid	359
282.05 K, Liquid	359.5
284.33 K, Liquid	360.3
286.6 K, Liquid	361.3
288.87 K, Liquid	362.4
290 K, Liquid	363.2
291.14 K, Liquid	363.3
293.42 K, Liquid	364.3
295.69 K, Liquid	365.2
297.95 K, Liquid	366.4
298.15 K, Liquid	366.7
300 K, Liquid	367.6
300.22 K, Liquid	367.4
302.49 K, Liquid	368.5
304.75 K, Liquid	369.6
307.02 K, Liquid	370.7
309.28 K, Liquid	371.7
310 K, Liquid	372.3
311.54 K, Liquid	372.7
313.8 K, Liquid	373.8
316.06 K, Liquid	375
318.32 K, Liquid	376.1
320 K, Liquid	377
320.58 K, Liquid	377
322.83 K, Liquid	378
325.09 K, Liquid	379.3
327.34 K, Liquid	380.1
329.59 K, Liquid	381.1
330 K, Liquid	381.7
331.84 K, Liquid	382.2
334.09 K, Liquid	383.3
336.34 K, Liquid	384.3
338.58 K, Liquid	385.6
340 K, Liquid	386.4
340.83 K, Liquid	386.7
343.08 K, Liquid	387.6
345.32 K, Liquid	388.7
347.57 K, Liquid	389.7
349.81 K, Liquid	390.7
350 K, Liquid	391.1
352.05 K, Liquid	391.7
354.29 K, Liquid	392.8
356.53 K, Liquid	393.9
358.76 K, Liquid	394.9
360 K, Liquid	395.9
361 K, Liquid	395.8
363.23 K, Liquid	397.1
365.46 K, Liquid	398
367.7 K, Liquid	399
370 K, Liquid	400.6
